Data on two compounds can be found in patent US20090081174A1 (priority 2005, published 2009).

Read-outs that look alike come from different tables or passages of the source.

One test relates to Plasmopara viticola. Nature of the test: 7-day preventive activity on Plasmopara viticola, leaf application on vines. It is filed as in vivo. How it is done: Leaves of cultivar Merlot vines, grown in vases, in a conditioned environment (20±1° C., 70% relative humidity) are treated by spraying both sides of the leaves with the mixtures under examination dispersed in an aqueous solution containing a 0.3% of tween 20.
After remaining 7 days in a conditioned environment, the plants are infected on the lower side with an aqueous suspension of spores of Plasmopara viticola (200,000 spores per cm^3).
The plants are kept in a humidity saturated environment, at 21° C., for the incubation period of the fungus and, at the end of this period (7 days), the fungicidal activity is evaluated according to an evaluation percentage scale from 100 (healthy plant) to 0 (completely infected plant).
From the data indicated in tables 1-2, it is possible to verify the synergistic effect of the mixtures, consisting of the mixtures being examined, compared with the expected efficacy using the Limpel formula (“Pesticide Science” (1987), vol. 19, pages 309-315): […]
wherein: • E is the fungicidal activity expected, in the absence of synergistic effects, from a mixture obtained by mixing g·x of compound X with g·y of compound Y; • x is the activity of compound X when used alone with a dosage of g·x; • y is the activity of compound Y when used alone with a dosage of g·y. […]

For a further test, the system named is Phytophthora infestans. Type of test: in vivo. The note with it: potato plants, scale 100 to 0.

Take `O=[PH]([O-])[O-].[Cu+2]` [CuHPO3, copper (II) salt of phosphorous acid]: the “Activity (y)” value is recorded as 35 in the test with Plasmopara viticola (listed phosphite salt(s) alone at 250 ppm equivalent phosphorous acid, scale 100 to 0); 12 with Phytophthora infestans (Table 4: listed phosphite salt(s) alone at 750 ppm equivalent phosphorous acid); 12 in the test with Phytophthora infestans (Table 5: listed phosphite salt(s) alone at 750 ppm equivalent phosphorous acid).
K2HPO3 [Mixture K2HPO3]: the “Activity (y)” value was found to be 45 with Plasmopara viticola (listed salt alone at 500 ppm equivalent phosphorous acid, scale 100 (healthy) to 0 (completely infected)) and 5 in the test on Phytophthora infestans (listed salt alone at 750 ppm equivalent phosphorous acid).
